Measurements published in US20100081632A1, “High-content and high throughput assays for identification of lipid-regulating pathways, and novel therapeutic agents for lipid disorders” (Odyssey Thera, Inc., priority 2008, published 2010).

What was measured:
PCSK9/LDLR complex = assay: PCSK9/LDLR protein complementation assay (PCA) in transfected HEK293 cells; format: cell-based, human
Protocol: In one of the embodiments of the invention, the cell-based assay consists of transfected cDNAs encoding full-length PCSK9 and LDL receptor, each sequence linked in-frame to rationally designed fragments of a variant of green fluorescent protein. These two plasmid constructs were co-expressed in human HEK cells plated in 384-well poly-lysine coated plates. After 24-48 hours of incubation, drugs (or vehicle controls) were added to the media, and the existence and localization of PCSK9/LDL receptor complexes was quantified on an Opera automated confocal fluorescence microscopy platform (Perkin Elmer). Images were subjected to automated image analysis, and results quantified and subjected to statistical analysis.
HEK 293T cells were seeded in normal growth media containing DMEM and 10% FBS at 1.5×10^4 in PDL-coated 96-well plates 24 hours prior to transfection. Cells were transfected with 50 ng of each construct DNA per well with Fugene 6, using conditions recommended by the manufacturer. Cells were allowed to express the construct pairs for 24- or 48 h, then the cells were simultaneously fixed and stained with either a 1:300 dilution of Hoescht 33342 (Molecular Probes, Eugene, Oreg.) or a 1:1000 dilution of Draq5 (Biostatus, Shepshed, Leicestershire, U.K.) in 4% formaldehyde for 15 minutes at room temperature. The cells were washed to remove fixative, and overlaid with a small volume of Hank's Buffered Salt Solution. Images were acquired on a Discovery-1 (Molecular Devices) epifluorescence microscope using the 20× objective, and DAPI and FITC filter sets. (with excitation at 350 and 488 nm wave lengths) or on an Opera (Perkin Elmer) confocal microscope using the 20× water objective with the following excitation and emission settings: Ex 488 nm/Em 535 nm (YFP) and Ex 635 nm/Em 640 nm (Draq5).
To test for in vitro PCSK9 function and activity, we developed a protein complementation assay (PCA) with PCSK9-IFP2 and the LDL-IFP1 receptor (PCSK9/LDLR). Expression of wild type PCSK9-IFP2 in transfected HEK293 cells was confirmed by Western blot using an antibody against YFP (FIG. 2). Cotranfection of HEK cells with increasing ratios of PCSK9-IFP2 and LDLR-IFP1 DNA constructs results in increased PCA signal (FIG. 3) but not when each construct is expressed alone. The intracellular localization of the wild-type PCSK9-IFP2/LDLR-IFP1 PCA interaction is similar to the known localization of wild type PCSK9 in the endoplasmic reticulum (ER) and post-ER compartments in various cell types (20, 21). The PCA signal for the PCSK9-IFP2/LDLR-IFP1 pair appears to be localized to multiple intracellular trafficking sites including the ER, endosomes and the cell surface.
In order to test the viability of using the PCSK9-IFP2/LDLR-IFP1 PCA as a drug discovery tool, we tested a drug plate containing 50 known drugs at 3 doses in the assay (Table 10) as well as several protein kinase inhibitors (representative compounds are depicted in Table 11). […] We observed the following effects of known compounds on the PCSK9/LDLR complex:
A collection of small molecular weight compounds was screened. […] To expand on this observation, we characterized the effects of a larger panel of kinase inhibitors on the PCSK9/LDLr complex. 47 compounds representing a broad range of known receptor tyrosine and serine-threonine kinase inhibitors were assessed (table 2). A subset was identified that had inhibitory effects on the PCSK9/LDLr complex (degree of assay inhibition relative to control is indicated by “% control”, Table 2).

HepG2 cells = assay: LDL uptake in HepG2 cells (human LDL conjugated to DyLight 549); format: cell-based; settings: for x-fold increase (hepatic LDL uptake): HepG2
Excerpt: The assay uses human LDL conjugated to DyLight™ 549 as a fluorescent probe for detection of LDL uptake into HepG2 cells.
We assessED whether compounds that inhibit the PCSK9/LDLr assay would have activity on LDL uptake and metabolism in a relevant cell type. PCSK9 is thought to be a negative regulator of LDLr. Thus, we predicted that compounds inhibiting the PCSK9 PCA signal would increase LDL receptor expression and LDL uptake. An assay using human LDL conjugated to DyLight™ 549 as a fluorescent probe for detection of LDL uptake into cultured human hepatocytes. A separate assay, using an LDL receptor-specific polyclonal antibody and a DyLight™ 488-conjugated secondary antibody, was also performed to localize LDL receptors
Quantitation of the increased LDL uptake of these and other kinase inhibitors targeting Akt, mTOR, p38, GSK3 and VEGF is shown in Table 4.

CC[n+]1c(/C=C/N(C)c2ccccc2)n(-c2ccccc2)c2ccc(-c3nc4ccccc4s3)cc21 [Akt Inhibitor IV, 5-(2-Benzothiazolyl)-3-ethyl-2-[2-(methylphenylamino)ethenyl]-1-phenyl-1H-benzimidazolium iodide]
% Control (PCSK9/LDLr PCA) (PCSK9/LDLR complex; dose 1 μM): 65% | % Control (PCSK9/LDLr PCA) (PCSK9/LDLR complex; dose 3 μM): 40% | % Control (PCSK9/LDLr PCA) (PCSK9/LDLR complex; dose 10 μM): 56%

CCN(CC)CCCCN1c2ccccc2Oc2ccc(Cl)cc21.Cl [Akt Inhibitor X, 10-(4′-(N-diethylamino)butyl)-2-chlorophenoxazine, HCl]
x-fold increase (LDL uptake in Hepg2 cells) (HepG2 cells; dose 1 μM): 1.4 x-fold | x-fold increase (hepatic LDL uptake) (HepG2 cells; dose 1 µM): 1.4 x-fold | x-fold increase (LDL uptake in Hepg2 cells) (HepG2 cells; dose 3 μM): 1.7 x-fold | x-fold increase (hepatic LDL uptake) (HepG2 cells; dose 3 µM): 1.7 x-fold

CN(C)CCC=C1c2ccccc2CCc2ccccc21 [Amitryptyline]
% Control (PCSK9/LDLr PCA) (PCSK9/LDLR complex; dose 100 μM): 48%

C=C1CC[C@@H]2[C@](C)(CO)CCC[C@@]2(C)[C@@H]1CCC1=CCOC1=O [Andrograpanin]
% Control (PCSK9/LDLr PCA) (PCSK9/LDLR complex; dose 100 μM): 40%

C=C1CC[C@@H]2[C@](C)(CO)[C@H](O)CC[C@@]2(C)[C@@H]1C/C=C1/C(=O)OC[C@H]1O [Andrographolide]
% Control (PCSK9/LDLr PCA) (PCSK9/LDLR complex; dose 100 μM): 43%

CN(C)CCCN1c2ccccc2CCc2ccc(Cl)cc21 [Clomipramine]
% Control (PCSK9/LDLr PCA) (PCSK9/LDLR complex; dose 50 μM): 46%

C=C1[C@@H](C)[C@H]2[C@H](Cc3ccccc3)NC(=O)[C@]23OC(=O)/C=C/[C@H](O)CCC[C@@H](C)C/C=C/[C@H]3[C@@H]1O [Cytochalasin B]
% Control (PCSK9/LDLr PCA) (PCSK9/LDLR complex; dose 2 μM): 53%

COc1cc2ncnc(Nc3ccc(F)c(Cl)c3)c2cc1OCCCN1CCOCC1 [Gefitinib]
% Control (PCSK9/LDLr PCA) (PCSK9/LDLR complex; dose 100 μM): 53%

CN(C)CCCN1c2ccccc2CCc2ccccc21 [Imipramine]
% Control (PCSK9/LDLr PCA) (PCSK9/LDLR complex; dose 150 μM): 46%

CCc1cc(-c2oncc2-c2ccc(OC)cc2)c(O)cc1OC [KRIBB3]
x-fold increase (LDL uptake in Hepg2 cells) (HepG2 cells; dose 1 μM): 1.3 x-fold | x-fold increase (hepatic LDL uptake) (HepG2 cells; dose 1 µM): 1.3 x-fold | x-fold increase (LDL uptake in Hepg2 cells) (HepG2 cells; dose 3 μM): 1.6 x-fold | x-fold increase (hepatic LDL uptake) (HepG2 cells; dose 3 µM): 1.6 x-fold

O=c1cc(N2CCNCC2)oc2c(-c3ccccc3)cccc12 [LY 303511]
x-fold increase (LDL uptake in Hepg2 cells) (HepG2 cells; dose 3 μM): 1.4 x-fold | x-fold increase (LDL uptake in Hepg2 cells) (HepG2 cells; dose 30 μM): 2.1 x-fold | x-fold increase (hepatic LDL uptake) (HepG2 cells; dose 30 µM): 2.1 x-fold | x-fold increase (hepatic LDL uptake) (HepG2 cells; dose 3 µM): 1.4 x-fold

Cc1c(OCC(F)(F)F)ccnc1C[S+]([O-])c1nc2ccccc2[nH]1 (centres unmarked) [Lanzoprazole]
effect on formation of PCSK9/LDLR complexes / PCA signal (in words) (PCSK9/LDLR complex): inhibit the formation of PCSK9/LDLR complexes | % Control (PCSK9/LDLr PCA) (PCSK9/LDLR complex; dose 100 μM): 53%

CS(=O)(=O)CCNCc1ccc(-c2ccc3ncnc(Nc4ccc(OCc5cccc(F)c5)c(Cl)c4)c3c2)o1 [Lapatinib]
effect on LDL uptake (in words) (HepG2 cells; HepG2, 10 μM): dramatic increase in LDL uptake | x-fold increase (LDL uptake in Hepg2 cells) (HepG2 cells; dose 10 μM): 1.8 x-fold | x-fold increase (hepatic LDL uptake) (HepG2 cells; dose 10 µM): 1.8 x-fold | x-fold increase (LDL uptake in Hepg2 cells) (HepG2 cells; dose 30 μM): 1.9 x-fold | x-fold increase (hepatic LDL uptake) (HepG2 cells; dose 30 µM): 1.9 x-fold

O=NN(CCCl)C(=O)NC1CCCCC1 [Lomustine]
% Control (PCSK9/LDLr PCA) (PCSK9/LDLR complex; dose 50 μM): 50% | % Control (PCSK9/LDLr PCA) (PCSK9/LDLR complex; dose 150 μM): 54%

CCOC(=O)N1CCC(=C2c3ccc(Cl)cc3CCc3cccnc32)CC1 [Loratidine]
% Control (PCSK9/LDLr PCA) (PCSK9/LDLR complex; dose 30 μM): 59%

Cc1cn(-c2cc(NC(=O)c3ccc(C)c(Nc4nccc(-c5cccnc5)n4)c3)cc(C(F)(F)F)c2)cn1 [Nilotinib]
effect on formation of PCSK9/LDLR complexes / PCA signal (in words) (PCSK9/LDLR complex): inhibit the formation of PCSK9/LDLR complexes | % Control (PCSK9/LDLr PCA) (PCSK9/LDLR complex; dose 3 μM): 48% | % Control (PCSK9/LDLr PCA) (PCSK9/LDLR complex; dose 10 μM): 65%
